Data on 7 compounds can be found in patent publication US6358701B1, “DNA molecules encoding Ctenocephalides felis glutamate gated chloride channels” (Merck & Co., Inc., priority 1997, dated 2002).

In assay [1] the test system is CfGluCl-1 (C. felis GluCl channel). Description: Two microelectrode voltage clamp of Xenopus oocytes expressing CfGluCl-1. Conditions: for ability to activate CfGluCl-1: agonists for other types of ligand-gated chloride channels. The class given is cell-based, Ctenocephalides felis. On the procedure:
The full-length cDNA encoding CfGluCl-1 in plasmid vector pBluescript (Stratagene, LaJolla, Calif.) is linearized and capped cRNA transcripts are synthesized using appropriate oligonucleotide primers and the mMESSAGE mMACHINE in vitro RNA transcription kit (Ambion). Xenopus laevis oocytes were prepared and injected using standard methods as described (Arena et al., 1991, Mol. Pharmacol. 40: 368-374; Arena et al, 1992, Mol. Brain Res. 15: 339-348). Adult female Xenopus laevis were anesthetized with 0.17% tricaine methanesulfonate and the ovaries were surgically removed and placed in a dish consisting of (mM): NaCl 82.5, KCl 2, MgCl2 1, CaCl2 1.8, HEPES 5 adjusted to pH 7.5 with NaOH (OR-2). Ovarian lobes were broken open, rinsed several times, and gently shaken in OR-2 containing 0.2% collagenase (Sigma, Type IA) for 2-5 hours. When approximately 50% of the follicular layers were removed, Stage V and VI oocytes were selected and placed in media consisting of (mM): NaCl 86, KCl 2, MgCl2 1, CaCl2 1.8, HEPES 5, Na pyruvate 2.5, theophylline 0.5, gentamicin 0.1 adjusted to pH 7.5 with NaOH (ND-96) for […] before injection. For most experiments, oocytes were injected with 10 ng of cRNA in 50 nl of RNase free water. Control oocytes were injected with 50 nl of water. Oocytes were incubated for 1-5 days in ND-96 supplemented with […] gentamycin, 2.5 mM Na pyruvate and 0.5 mM theophylline before recording. Incubations and collagenase digestion were carried out at […].
Voltage-clamp studies were conducted with the two microelectrode voltage clamp technique using a Dagan CA1 amplifier (Dagan Instruments, Minneapolis, Minn.). The current passing microelectrodes were filled with 0.7M KCl plus 1.7M K3-citrate and the voltage recording microelectrodes were filled with 1.0M KCl. The extracellular solution for most experiments was saline consisting of (mM): NaCl 96, BaCl2 3.5, MgCl2 0.5, CaCl2 0.1, HEPES 5, adjusted to pH 7.5 with NaOH. The extracellular chloride concentration was reduced in some experiments by equimolar replacement of NaCl with the sodium salt of the indicated anion. Experiments were conducted at 21-24° C. Data were acquired using the program Pulse and most analysis was performed with the companion program Pulsefit (Instrutech Instruments, Great Neck, N.Y.) or with Igor Pro (Wavemetrics, Lake Oswego, Oreg.). Data were filtered (fc, −3db) at 1 kHz, unless otherwise indicated.
FIG. 5A and FIG. 5B show the activation of CfGluCl-1 by glutamate. […] The duration of exposure to glutamate is indicated by the solid bar at top. FIG. 5B shoes the concentration-response curve for glutamate. Peak outward current is plotted vs. glutamate concentration. The solid curve is the best fit to the equation I/Imax={1+(EC50/[glutamate])^n}^−1. […] Agonists for other types of ligand-gated chloride channels were also tested for the ability to activate
Each curve represents the difference between the current measured with and without 10 μM glutamate. The voltage was ramped from −120 to +60 mV at 1 volt/second. Chloride concentration was reduced from 104 mM to 8.2 mM by equimolar substitution of NaCl by Na-methanesulfonate or Na-gluconate. Each current-voltage relationship was fit to a seventh order polynomial using non-linear least squares analysis and the reversal potential was taken as the x-intercept of this polynomial.
A single [IVM-PO4] was tested on each oocyte. The ordinate is the maximal current induced by IVM-PO4 normalized by the peak current induced by 100 μM glutamate, a maximally effective concentration. The error bars indicate ±S.E.M. The holding potential was 0 mV for both sets of measurements. The filled circles represent data for CfGluCl-1.
(1) I=Iivm,max/{1+(EC50/[IVM-PO4])^n}

For assay [2], the target named is DmGluCl1 (Drosophila melanogaster, UniProt Q94900). Conditions: holding potential −80 mV; cited from earlier work.

Read-outs that look alike come from different tables or passages of the source.

Sequence of DmGluCl1 (Q94900 23-456 S345N): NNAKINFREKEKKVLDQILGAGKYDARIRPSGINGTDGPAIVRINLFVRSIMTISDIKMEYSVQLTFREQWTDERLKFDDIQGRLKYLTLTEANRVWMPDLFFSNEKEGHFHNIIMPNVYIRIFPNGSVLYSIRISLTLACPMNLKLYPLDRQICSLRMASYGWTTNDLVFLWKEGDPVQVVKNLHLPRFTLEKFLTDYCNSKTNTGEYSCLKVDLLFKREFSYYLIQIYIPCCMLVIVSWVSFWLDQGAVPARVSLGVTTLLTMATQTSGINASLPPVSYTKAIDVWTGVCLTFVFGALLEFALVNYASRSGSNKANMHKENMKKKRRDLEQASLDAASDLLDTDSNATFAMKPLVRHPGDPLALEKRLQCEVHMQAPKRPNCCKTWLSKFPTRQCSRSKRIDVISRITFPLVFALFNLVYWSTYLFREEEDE

For `NCCCC(=O)O` [GABA], in assay [1], the “ability to activate CfGluCl-1” value was “inactive”. The same measure, in the same setting: as for `CC(=O)OCC[N+](C)(C)C` [acetylcholine], the entry is “inactive”.

`N[C@@H](CCC(=O)O)C(=O)O` [glutamate]: the EC50 in assay [1] (experiment of FIG. 5B, fit to I/Imax={1+(EC50/[glutamate])^n}^−1, read-out: EC50 for activation of CfGluCl-1 (peak outward current vs. concentration)) was 9300 nM. With `NCC(=O)O` [glycine], the “ability to activate CfGluCl-1” value in assay [1] was “inactive”. Same read-out and setting: as for `NCCc1c[nH]cn1` [histamine], the entry is “inactive”.

Turning to `NCc1cc(=O)[nH]o1` [muscimol], the “ability to activate CfGluCl-1” value in assay [1] is “inactive”. As for ivermectin phosphate [IVM-PO4], in assay [2], the EC50 is 41 nM, the “Iivm,max on DmGluCl1” value is on record as 0.35 and the “n (exponent of equation (1)) on DmGluCl1” value was 1.2. The increase in potency in assay [1] (0 mV measurements vs. earlier −80 mV data) is 10 fold. Further, the “agonist activity at the flea GluCl channel encoded by CfGluCl-1” value in assay [1] (FIGS. 7A and B) was “agonist”. Besides, the “Iivm,max (maximal current normalized by the peak current induced by 100 μM glutamate)” value in assay [1] (holding potential 0 mV) amounted to 0.718. Further, the EC50 in assay [1] (holding potential 0 mV, fit to equation (1), read-out: EC50 for activation of CfGluCl-1) came out at 2.93 nM.
